Assay results taken from patent publication US20260226068A1, “IMIDAZOTRIAZINE IL-17A MODULATORS AND USES THEREOF” (DICE ALPHA, INC., priority 2023, published 2026).

Tests used:
IL-17A/A = target: T1, IL-17A/A (Homo sapiens, UniProt Q16552); assay: IL-17A/A HEK-Blue cell assay (SEAP reporter); type: cell-based; conditions: HEK-Blue IL-17A reporter cells, IL17A/A 5 ng/mL, 20 hours, SEAP read at A630; read-out: HEK-Blue IL17AA (IC50 for IL-17A/A inhibition)
T1 construct: purchased Genscript Z03228
T1 sequence (Q16552 24-155): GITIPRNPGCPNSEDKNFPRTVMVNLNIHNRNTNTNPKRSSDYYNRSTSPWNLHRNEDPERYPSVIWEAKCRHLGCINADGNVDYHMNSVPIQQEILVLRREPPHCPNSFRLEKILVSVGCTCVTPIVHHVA

IL-17A/F = target: T2, IL-17A/F (Homo sapiens, UniProt Q16552+Q96PD4); assay: IL-17A/F HEK-Blue cell assay (SEAP reporter); type: cell-based; conditions: HEK-Blue IL-17A reporter cells, IL17A/F 5 ng/mL, 20 hours, SEAP read at A630; read-out: HEK-Blue IL17AF (IC50 for IL-17A/F inhibition)
T2 construct: purchased R&D Systems
T2 sequence (Q16552 24-155): T1 sequence (Q16552 24-155)
T2 sequence (Q96PD4 31-163): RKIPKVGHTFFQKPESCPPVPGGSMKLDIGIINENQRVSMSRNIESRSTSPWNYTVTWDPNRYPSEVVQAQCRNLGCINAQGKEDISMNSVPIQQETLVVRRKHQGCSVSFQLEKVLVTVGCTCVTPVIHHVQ

Compound | IC50 (IL-17A/A) [nM] | IC50 (IL-17A/F) [nM]
CCn1nccc1C(=O)N[C@H](c1cn2nc(C[C@H]3C[C@@H](C(F)(F)F)CNC3=O)c(CNCC(F)(F)F)nc2n1)C1CCC(F)(F)CC1 [Compound 331, N—((S)-(4,4-difluorocyclohexyl)(2-(((3R,5R)-2-oxo-5-(trifluoromethyl)piperidin-3-yl)methyl)-3-(((2,2,2-trifluoroethyl)amino)methyl)imidazo[1,2-b][1,2,4]triazin-6-yl)methyl)-1-ethyl-1H-pyrazole-5-carboxamide] | < 100 | 100 to 1000
CCn1nccc1C(=O)N[C@H](c1cn2nc(C[C@H]3C[C@@H](C(F)(F)F)CNC3=O)c(Cn3ccnc3)nc2n1)C1CCC(F)(F)CC1 [Compound 334, N—((S)-(3-((1H-imidazol-1-yl)methyl)-2-(((3R,5R)-2-oxo-5-(trifluoromethyl)piperidin-3-yl)methyl)imidazo[1,2-b][1,2,4]triazin-6-yl)(4,4-difluorocyclohexyl)methyl)-1-ethyl-1H-pyrazole-5-carboxamide] | < 100 | 100 to 1000
CCn1nccc1C(=O)N[C@H](c1cn2nc(C[C@H]3C[C@@H](C(F)(F)F)CNC3=O)c(CN(C)CC(F)(F)F)nc2n1)C1CCC(F)(F)CC1 [Compound 335, N—((S)-(4,4-difluorocyclohexyl)(3-((methyl(2,2,2-trifluoroethyl)amino)methyl)-2-(((3R,5R)-2-oxo-5-(trifluoromethyl)piperidin-3-yl)methyl)imidazo[1,2-b][1,2,4]triazin-6-yl)methyl)-1-ethyl-1H-pyrazole-5-carboxamide] | < 100 | 100 to 1000
CCn1nccc1C(=O)N[C@H](c1cn2nc(C[C@H]3C[C@@H](C(F)(F)F)CNC3=O)c(CN3C(C)CC3C)nc2n1)C1CCC(F)(F)CC1 (stereo partly drawn) [Compound 338, N-((1S)-(4,4-difluorocyclohexyl)(3-((2,4-dimethylazetidin-1-yl)methyl)-2-(((3R,5R)-2-oxo-5-(trifluoromethyl)piperidin-3-yl)methyl)imidazo[1,2-b][1,2,4]triazin-6-yl)methyl)-1-ethyl-1H-pyrazole-5-carboxamide] | < 100 | > 1000
CCn1nccc1C(=O)N[C@H](c1cn2nc(C[C@H]3C[C@@H](C(F)(F)F)CNC3=O)c(CN3CC4(C3)CC(O)(C(F)(F)F)C4)nc2n1)C1CCC(F)(F)CC1 [Compound 341, N—((S)-(4,4-difluorocyclohexyl)(3-((6-hydroxy-6-(trifluoromethyl)-2-azaspiro[3.3]heptan-2-yl)methyl)-2-(((3R,5R)-2-oxo-5-(trifluoromethyl)piperidin-3-yl)methyl)imidazo[1,2-b][1,2,4]triazin-6-yl)methyl)-1-ethyl-1H-pyrazole-5-carboxamide] | < 100 | > 1000
CCn1nccc1C(=O)N[C@H](c1cn2nc(C[C@H]3C[C@@H](C(F)(F)F)CNC3=O)c(CN3CCCC3C)nc2n1)C1CCC(F)(F)CC1 (stereo partly drawn) [Compound 343, N-((1S)-(4,4-difluorocyclohexyl)(3-((2-methylpyrrolidin-1-yl)methyl)-2-(((3R,5R)-2-oxo-5-(trifluoromethyl)piperidin-3-yl)methyl)imidazo[1,2-b][1,2,4]triazin-6-yl)methyl)-1-ethyl-1H-pyrazole-5-carboxamide] | < 100 | > 1000
CCn1nccc1C(=O)N[C@H](c1cn2nc(C[C@H]3C[C@@H](C(F)(F)F)CNC3=O)c(CN3CCC4(CC3)CC4)nc2n1)C1CCC(F)(F)CC1 [Compound 346, N—((S)-(3-((6-azaspiro[2.5]octan-6-yl)methyl)-2-(((3R,5R)-2-oxo-5-(trifluoromethyl)piperidin-3-yl)methyl)imidazo[1,2-b][1,2,4]triazin-6-yl)(4,4-difluorocyclohexyl)methyl)-1-ethyl-1H-pyrazole-5-carboxamide] | < 100 | > 1000
CCn1nccc1C(=O)N[C@H](c1cn2nc(C[C@H]3C[C@@H](C(F)(F)F)CNC3=O)c(CN3CCCC4(CC4)C3)nc2n1)C1CCC(F)(F)CC1 [Compound 347, N—((S)-(3-((5-azaspiro[2.5]octan-5-yl)methyl)-2-(((3R,5R)-2-oxo-5-(trifluoromethyl)piperidin-3-yl)methyl)imidazo[1,2-b][1,2,4]triazin-6-yl)(4,4-difluorocyclohexyl)methyl)-1-ethyl-1H-pyrazole-5-carboxamide] | < 100 | > 1000

More lines, now with the values ahead:

IC50 (IL-17A/A) [nM] | IC50 (IL-17A/F) [nM] | Compound
< 100 | > 1000 | CCn1nccc1C(=O)N[C@H](c1cn2nc(C[C@H]3C[C@@H](C(F)(F)F)CNC3=O)c(CN3CC(F)(F)C3)nc2n1)C1CCC(F)(F)CC1 [Compound 332, N—((S)-(3-((3,3-difluoroazetidin-1-yl)methyl)-2-(((3R,5R)-2-oxo-5-(trifluoromethyl)piperidin-3-yl)methyl)imidazo[1,2-b][1,2,4]triazin-6-yl)(4,4-difluorocyclohexyl)methyl)-1-ethyl-1H-pyrazole-5-carboxamide]
< 100 | > 1000 | CCn1nccc1C(=O)N[C@H](c1cn2nc(C[C@H]3C[C@@H](C(F)(F)F)CNC3=O)c(CN3CCC(F)(F)C3)nc2n1)C1CCC(F)(F)CC1 [Compound 333, N—((S)-(4,4-difluorocyclohexyl)(3-((3,3-difluoropyrrolidin-1-yl)methyl)-2-(((3R,5R)-2-oxo-5-(trifluoromethyl)piperidin-3-yl)methyl)imidazo[1,2-b][1,2,4]triazin-6-yl)methyl)-1-ethyl-1H-pyrazole-5-carboxamide]
< 100 | 100 to 1000 | CCn1nccc1C(=O)N[C@H](c1cn2nc(C[C@H]3C[C@@H](C(F)(F)F)CNC3=O)c(CN3CC(C(F)(F)F)C3)nc2n1)C1CCC(F)(F)CC1 [Compound 336, N—((S)-(4,4-difluorocyclohexyl)(2-(((3R,5R)-2-oxo-5-(trifluoromethyl)piperidin-3-yl)methyl)-3-((3-(trifluoromethyl)azetidin-1-yl)methyl)imidazo[1,2-b][1,2,4]triazin-6-yl)methyl)-1-ethyl-1H-pyrazole-5-carboxamide]
< 100 | > 1000 | CCn1nccc1C(=O)N[C@H](c1cn2nc(C[C@H]3C[C@@H](C(F)(F)F)CNC3=O)c(CN3CC(C)(F)C3)nc2n1)C1CCC(F)(F)CC1 [Compound 337, N—((S)-(4,4-difluorocyclohexyl)(3-((3-fluoro-3-methylazetidin-1-yl)methyl)-2-(((3R,5R)-2-oxo-5-(trifluoromethyl)piperidin-3-yl)methyl)imidazo[1,2-b][1,2,4]triazin-6-yl)methyl)-1-ethyl-1H-pyrazole-5-carboxamide]
100 to 1000 | > 1000 | CCn1nccc1C(=O)N[C@H](c1cn2nc(C[C@H]3C[C@@H](C(F)(F)F)CNC3=O)c(CN3CC4(CC4)C3)nc2n1)C1CCC(F)(F)CC1 [Compound 339, N—((S)-(3-((5-azaspiro[2.3]hexan-5-yl)methyl)-2-(((3R,5R)-2-oxo-5-(trifluoromethyl)piperidin-3-yl)methyl)imidazo[1,2-b][1,2,4]triazin-6-yl)(4,4-difluorocyclohexyl)methyl)-1-ethyl-1H-pyrazole-5-carboxamide]
< 100 | > 1000 | CCn1nccc1C(=O)N[C@H](c1cn2nc(C[C@H]3C[C@@H](C(F)(F)F)CNC3=O)c(CN3CC4(C3)CC(F)(F)C4)nc2n1)C1CCC(F)(F)CC1 [Compound 340, N—((S)-(3-((6,6-difluoro-2-azaspiro[3.3]heptan-2-yl)methyl)-2-(((3R,5R)-2-oxo-5-(trifluoromethyl)piperidin-3-yl)methyl)imidazo[1,2-b][1,2,4]triazin-6-yl)(4,4-difluorocyclohexyl)methyl)-1-ethyl-1H-pyrazole-5-carboxamide]
100 to 1000 | > 1000 | CCn1nccc1C(=O)N[C@H](c1cn2nc(C[C@H]3C[C@@H](C(F)(F)F)CNC3=O)c(CN3CCC(C)(C)C3)nc2n1)C1CCC(F)(F)CC1 [Compound 342, N—((S)-(4,4-difluorocyclohexyl)(3-((3,3-dimethylpyrrolidin-1-yl)methyl)-2-(((3R,5R)-2-oxo-5-(trifluoromethyl)piperidin-3-yl)methyl)imidazo[1,2-b][1,2,4]triazin-6-yl)methyl)-1-ethyl-1H-pyrazole-5-carboxamide]
100 to 1000 | > 1000 | CCn1nccc1C(=O)N[C@H](c1cn2nc(C[C@H]3C[C@@H](C(F)(F)F)CNC3=O)c(CN3CCC4(CC4)C3)nc2n1)C1CCC(F)(F)CC1 [Compound 344, N—((S)-(3-((5-azaspiro[2.4]heptan-5-yl)methyl)-2-(((3R,5R)-2-oxo-5-(trifluoromethyl)piperidin-3-yl)methyl)imidazo[1,2-b][1,2,4]triazin-6-yl)(4,4-difluorocyclohexyl)methyl)-1-ethyl-1H-pyrazole-5-carboxamide]
< 100 | > 1000 | CCn1nccc1C(=O)N[C@H](c1cn2nc(C[C@H]3C[C@@H](C(F)(F)F)CNC3=O)c(CN3CCC(F)(F)CC3)nc2n1)C1CCC(F)(F)CC1 [Compound 345, N—((S)-(4,4-difluorocyclohexyl)(3-((4,4-difluoropiperidin-1-yl)methyl)-2-(((3R,5R)-2-oxo-5-(trifluoromethyl)piperidin-3-yl)methyl)imidazo[1,2-b][1,2,4]triazin-6-yl)methyl)-1-ethyl-1H-pyrazole-5-carboxamide]
